Our source for the CC50 values is patent US20240254118A1, “PRMT5 INHIBITORS AND USES THEREOF” (Gilead Sciences, Inc., priority 2022, published 2024).

A value given as a limit tells only on which side of the number the result lay.

As usually defined, the CC50 is the concentration that lowers cell viability or growth by half. A low value points to greater toxicity to the cells.

In this test the test system is HCT116 MTAP-deleted cells. Kind of test: Cell viability assay (CellTiter-Glo, 7 days), HCT116 MTAP-deleted. As to conditions: Homo sapiens, HCT-116, 168 h.

On to `Nc1nc2ccc(C(=O)N(Cc3nc4ccc(Cl)cc4[nH]3)N3CCCC3=O)cc2c2ccccc12` [Example 124, 6-amino-N-((6-chloro-1H-benzo[d]imidazol-2-yl)methyl)-N-(2-oxopyrrolidin-1-yl)phenanthridine-2-carboxamide], for which the 50% cytotoxic concentration (CC50) was 100 to 1000 nM. The figure for `CC(=O)N(C)N(Cc1ccc(-c2cnc(C(F)(F)F)s2)cc1F)C(=O)c1ccc2nc(N)c3cnn(C)c3c2c1` [Example 217, N′-acetyl-4-amino-N-(2-fluoro-4-(2-(trifluoromethyl)thiazol-5-yl)benzyl)-N′,1-dimethyl-1H-pyrazolo[4,3-c]quinoline-8-carbohydrazide] is less than 100 nM. Under `CC(=O)N(C)N(Cc1ccc(-c2ccc(C(F)(F)F)cn2)cc1F)C(=O)c1ccc2nc(N)c3cnn(C)c3c2c1` [Example 224, N′-acetyl-4-amino-N-(2-fluoro-4-(5-(trifluoromethyl)pyridin-2-yl)benzyl)-N′,1-dimethyl-1H-pyrazolo[4,3-c]quinoline-8-carbohydrazide] stands less than 100 nM; under `CC(=O)N(C)N(Cc1ccc(-c2cc(C(F)(F)F)ccn2)cc1F)C(=O)c1ccc2nc(N)c3cnn(C)c3c2c1` [Example 225, N′-acetyl-4-amino-N-(2-fluoro-4-(4-(trifluoromethyl)pyridin-2-yl)benzyl)-N′,1-dimethyl-1H-pyrazolo[4,3-c]quinoline-8-carbohydrazide], less than 100 nM. The figure for `CC(=O)N(C)N(Cc1ccc(-c2cnoc2)cc1F)C(=O)c1ccc2nc(N)c3cnn(C)c3c2c1` [Example 227, N′-acetyl-4-amino-N-(2-fluoro-4-(isoxazol-4-yl)benzyl)-N′,1-dimethyl-1H-pyrazolo[4,3-c]quinoline-8-carbohydrazide] is less than 100 nM; for `CC(=O)N(C)N(Cc1ccc(-c2ccc(C(F)(F)F)s2)cc1F)C(=O)c1ccc2nc(N)c3cnn(C)c3c2c1` [Example 237, N′-acetyl-4-amino-N-(2-fluoro-4-(5-(trifluoromethyl)thiophen-2-yl)benzyl)-N′,1-dimethyl-1H-pyrazolo[4,3-c]quinoline-8-carbohydrazide] it is less than 100 nM; for `CN(C(=O)C1CC1)N(Cc1ccc(-c2ccsn2)cc1F)C(=O)c1ccc2nc(N)c3cnn(C)c3c2c1` [Example 239, 4-amino-N′-(cyclopropanecarbonyl)-N-(2-fluoro-4-(isothiazol-3-yl)benzyl)-N′,1-dimethyl-1H-pyrazolo[4,3-c]quinoline-8-carbohydrazide] it is less than 100 nM. For `CC(=O)N(C)N(Cc1ccc(-c2cccnc2)cc1F)C(=O)c1ccc2nc(N)c3cnn(C)c3c2c1` [Example 241, N′-acetyl-4-amino-N-(2-fluoro-4-(pyridin-3-yl)benzyl)-N′,1-dimethyl-1H-pyrazolo[4,3-c]quinoline-8-carbohydrazide], the CC50 was less than 100 nM. Under `CC(=O)N(C)N(Cc1ccc(-c2cncs2)cc1F)C(=O)c1ccc2nc(N)c3cnn(C)c3c2c1` [Example 245, N′-acetyl-4-amino-N-(2-fluoro-4-(thiazol-5-yl)benzyl)-N′,1-dimethyl-1H-pyrazolo[4,3-c]quinoline-8-carbohydrazide] stands less than 100 nM. The figure for `CC(=O)N(C)N(Cc1ccc(-c2cnn(C3(C)CC3)c2)cc1F)C(=O)c1ccc2nc(N)c3cnn(C)c3c2c1` [Example 247, N′-acetyl-4-amino-N-(2-fluoro-4-(1-(1-methylcyclopropyl)-1H-pyrazol-4-yl)benzyl)-N′,1-dimethyl-1H-pyrazolo[4,3-c]quinoline-8-carbohydrazide] is less than 100 nM; for `CC(=O)N(C)N(Cc1ccc(-c2cnn(C(F)(F)F)c2)cc1C#N)C(=O)c1ccc2nc(N)c3cnn(C)c3c2c1` [Example 251, N′-acetyl-4-amino-N-(2-cyano-4-(1-(trifluoromethyl)-1H-pyrazol-4-yl)benzyl)-N′,1-dimethyl-1H-pyrazolo[4,3-c]quinoline-8-carbohydrazide] it is less than 100 nM. Under `CC(=O)N(C)N(Cc1ccc(-c2cnn(C(F)F)c2)cc1C#N)C(=O)c1ccc2nc(N)c3cnn(C)c3c2c1` [Example 252, N′-acetyl-4-amino-N-(2-cyano-4-(1-(difluoromethyl)-1H-pyrazol-4-yl)benzyl)-N′,1-dimethyl-1H-pyrazolo[4,3-c]quinoline-8-carbohydrazide] stands less than 100 nM. The molecule `[2H]C([2H])([2H])N(C(=O)C1CC1)N(Cc1ncc(C(F)(F)F)cc1F)C(=O)c1ccc2nc(N)c3cnn(C)c3c2c1` [Example 268, 4-amino-N′-(cyclopropanecarbonyl)-N-((3-fluoro-5-(trifluoromethyl)pyridin-2-yl)methyl)-1-methyl-N′-(methyl-d3)-1H-pyrazolo[4,3-c]quinoline-8-carbohydrazide] registered a CC50 of less than 100 nM.

For the molecule `[2H]C([2H])([2H])N(C(C)=O)N(Cc1ccc(C(F)(F)F)cc1F)C(=O)c1ccc2nc(N)c3cnn(C)c3c2c1` [Example 269, N′-acetyl-4-amino-N-(2-fluoro-4-(trifluoromethyl)benzyl)-1-methyl-N′-(methyl-d3)-1H-pyrazolo[4,3-c]quinoline-8-carbohydrazide], the CC50 was less than 100 nM. The figure for `CC(=O)N(C)N(Cc1cccc2ccoc12)C(=O)c1ccc2nc(N)c3cnn(C)c3c2c1` [Example 273, N′-acetyl-4-amino-N-(benzofuran-7-ylmethyl)-N′,1-dimethyl-1H-pyrazolo[4,3-c]quinoline-8-carbohydrazide] is less than 100 nM; for `CN(C(=O)C1CC1)N(Cc1ccc2c(c1)OC(F)(F)O2)C(=O)c1cc2c(cc1F)nc(N)c1cnn(C)c12` [Example 282, 4-amino-N′-(cyclopropanecarbonyl)-N-((2,2-difluorobenzo[d][1,3]dioxol-5-yl)methyl)-7-fluoro-N′,1-dimethyl-1H-pyrazolo[4,3-c]quinoline-8-carbohydrazide] it is less than 100 nM; for `Cn1ncc2c(N)nc3cc(F)c(C(=O)N(Cc4ccc(C(F)(F)F)cn4)N4CCOC5(CC5)C4)cc3c21` [Example 284, 4-amino-7-fluoro-1-methyl-N-(4-oxa-7-azaspiro[2.5]octan-7-yl)-N-((5-(trifluoromethyl)pyridin-2-yl)methyl)-1H-pyrazolo[4,3-c]quinoline-8-carboxamide] it is less than 100 nM. Under `Cn1ncc2c(N)nc3ccc(C(=O)N(Cc4ccc(C(F)(F)F)cn4)N4CCOC5(CC5)C4)cc3c21` [Example 285, 4-amino-1-methyl-N-(4-oxa-7-azaspiro[2.5]octan-7-yl)-N-((5-(trifluoromethyl)pyridin-2-yl)methyl)-1H-pyrazolo[4,3-c]quinoline-8-carboxamide] stands 100 to 1000 nM. Molecule `CN(C(=O)C1CC1)N(Cc1ccc(OC(F)F)cn1)C(=O)c1cc2c(cc1F)nc(N)c1cnn(C)c12` [Example 290, 4-amino-N′-(cyclopropanecarbonyl)-N-((5-(difluoromethoxy)pyridin-2-yl)methyl)-7-fluoro-N′,1-dimethyl-1H-pyrazolo[4,3-c]quinoline-8-carbohydrazide] returned a CC50 of less than 100 nM. The figure for `CN(C(=O)C1CC1)N(Cc1ccc(OC(F)F)cn1)C(=O)c1ccc2nc(N)c3cnn(C)c3c2c1` [Example 291, 4-amino-N′-(cyclopropanecarbonyl)-N-((5-(difluoromethoxy)pyridin-2-yl)methyl)-N′,1-dimethyl-1H-pyrazolo[4,3-c]quinoline-8-carbohydrazide] is less than 100 nM; for `CN(C(=O)C1CC1)N(Cc1ccc(-c2ccn(C(F)F)n2)cc1F)C(=O)c1ccc2nc(N)c3cnn(C)c3c2c1` [Example 312, 4-amino-N′-(cyclopropanecarbonyl)-N-(4-(1-(difluoromethyl)-1H-pyrazol-3-yl)-2-fluorobenzyl)-N′,1-dimethyl-1H-pyrazolo[4,3-c]quinoline-8-carbohydrazide] it is less than 100 nM; for `COc1c(CN(C(=O)c2ccc3nc(N)c4cnn(C)c4c3c2)N(C)C(=O)C2CC2)ccc(Cl)c1F` [Example 313, 4-amino-N-(4-chloro-3-fluoro-2-methoxybenzyl)-N′-(cyclopropanecarbonyl)-N′,1-dimethyl-1H-pyrazolo[4,3-c]quinoline-8-carbohydrazide] it is less than 100 nM. Under `CN(C(=O)C1CC1)N(Cc1cc(F)c(-c2cnn(C(F)F)c2)cc1F)C(=O)c1ccc2nc(N)c3cnn(C)c3c2c1` [Example 314, 4-amino-N′-(cyclopropanecarbonyl)-N-(4-(1-(difluoromethyl)-1H-pyrazol-4-yl)-2,5-difluorobenzyl)-N′,1-dimethyl-1H-pyrazolo[4,3-c]quinoline-8-carbohydrazide] stands less than 100 nM; under `COCc1cc(C(F)(F)F)ccc1CN(C(=O)c1ccc2nc(N)c3cnn(C)c3c2c1)N(C)C(=O)C1CC1` [Example 316, 4-amino-N′-(cyclopropanecarbonyl)-N-(2-(methoxymethyl)-4-(trifluoromethyl)benzyl)-N′,1-dimethyl-1H-pyrazolo[4,3-c]quinoline-8-carbohydrazide], less than 100 nM. Under `CN(C(=O)C1CC1)N(Cc1ccc(OC(F)F)cc1F)C(=O)c1ccc2nc(N)c3cnn(C)c3c2c1` [Example 317, 4-amino-N′-(cyclopropanecarbonyl)-N-(4-(difluoromethoxy)-2-fluorobenzyl)-N′,1-dimethyl-1H-pyrazolo[4,3-c]quinoline-8-carbohydrazide] stands less than 100 nM; under `Cn1ncc2c(N)nc3ccc(C(=O)N(Cc4ccc(C(F)(F)F)cn4)N4CC5(CC5)COC4=O)cc3c21` [Example 319, 4-amino-1-methyl-N-(6-oxo-5-oxa-7-azaspiro[2.5]octan-7-yl)-N-((5-(trifluoromethyl)pyridin-2-yl)methyl)-1H-pyrazolo[4,3-c]quinoline-8-carboxamide], less than 100 nM. As for `Cn1ncc2c(N)nc3cc(F)c(C(=O)N(Cc4ccc(C(F)(F)F)cn4)N4CC5(CC5)COC4=O)cc3c21` [Example 320, 4-amino-7-fluoro-1-methyl-N-(6-oxo-5-oxa-7-azaspiro[2.5]octan-7-yl)-N-((5-(trifluoromethyl)pyridin-2-yl)methyl)-1H-pyrazolo[4,3-c]quinoline-8-carboxamide], the CC50 is less than 100 nM.
